Results on 9 compounds are retold here after publication PMC9516332 (Frontiers in Oncology, 2022).

What all share (experiment): Kinase panel profiling at 1 µmol/L (MSA or IMAP), percentage inhibition
Holding throughout (assay type): biochemical

Assay [1] addresses panel of 255 wild-type kinases (Homo sapiens, UniProt Q9P0L2). Particulars: read-out: %-inhibition, MARK1.
In assay [2] the target is panel of 255 wild-type kinases (Homo sapiens, UniProt P09619). Particulars: read-out: %-inhibition at 1 µmol/L, PDGFRβ.
Assay [3] addresses T1, panel of 255 wild-type kinases (Homo sapiens, UniProt Q12866).
T1 sequence (Q12866 21-999): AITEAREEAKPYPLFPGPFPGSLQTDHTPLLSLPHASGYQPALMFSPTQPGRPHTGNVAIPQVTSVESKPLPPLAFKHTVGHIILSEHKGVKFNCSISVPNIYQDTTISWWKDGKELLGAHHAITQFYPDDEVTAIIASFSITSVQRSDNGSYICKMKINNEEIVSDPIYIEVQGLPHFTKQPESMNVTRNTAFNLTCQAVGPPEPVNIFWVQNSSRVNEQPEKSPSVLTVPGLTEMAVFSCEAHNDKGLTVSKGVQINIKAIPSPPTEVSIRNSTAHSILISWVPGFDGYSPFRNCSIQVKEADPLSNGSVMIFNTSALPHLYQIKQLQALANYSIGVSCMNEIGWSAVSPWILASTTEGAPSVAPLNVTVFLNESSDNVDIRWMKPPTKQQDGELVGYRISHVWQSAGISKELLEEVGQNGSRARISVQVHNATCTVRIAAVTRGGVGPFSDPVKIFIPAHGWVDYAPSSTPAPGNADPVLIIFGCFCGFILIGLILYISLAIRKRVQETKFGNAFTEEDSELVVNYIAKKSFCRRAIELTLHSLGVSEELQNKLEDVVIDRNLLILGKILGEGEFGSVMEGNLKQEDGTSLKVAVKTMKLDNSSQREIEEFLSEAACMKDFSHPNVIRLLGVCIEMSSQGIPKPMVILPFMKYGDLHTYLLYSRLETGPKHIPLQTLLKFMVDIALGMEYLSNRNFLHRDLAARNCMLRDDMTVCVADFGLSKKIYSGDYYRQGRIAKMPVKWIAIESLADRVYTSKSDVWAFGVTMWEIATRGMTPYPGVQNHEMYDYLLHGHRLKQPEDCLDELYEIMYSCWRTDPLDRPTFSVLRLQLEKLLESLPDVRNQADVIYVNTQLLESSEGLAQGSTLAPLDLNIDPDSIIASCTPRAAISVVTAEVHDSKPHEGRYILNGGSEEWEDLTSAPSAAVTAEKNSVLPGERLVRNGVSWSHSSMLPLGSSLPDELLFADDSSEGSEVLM
The following applies: read-out: %-inhibition, MER.

Assay [4] addresses panel of 255 wild-type kinases (Homo sapiens, UniProt P49760). The following applies: read-out: %-inhibition at 1 µmol/L, CLK2.
The target of assay [5] is panel of 255 wild-type kinases (Homo sapiens, UniProt Q16512). The following applies: read-out: %-inhibition at 1 µmol/L, PKN1.
In assay [6] the target is panel of 255 wild-type kinases (Homo sapiens, UniProt Q8IU85). Particulars: read-out: %-inhibition CaMK1δ.
Assay [7] concerns the target panel of 255 wild-type kinases (Homo sapiens, UniProt Q13177). Particulars: read-out: %-inhibition, PAK2.
Assay [8] has as its target panel of 255 wild-type kinases (Homo sapiens, UniProt P23458). Particulars: read-out: %-inhibition at 1 µmol/L, JAK1.
Assay [9] deals with T2, panel of 255 wild-type kinases (Homo sapiens, UniProt Q9NRM7).
T2 sequence (Q9NRM7 1-1088): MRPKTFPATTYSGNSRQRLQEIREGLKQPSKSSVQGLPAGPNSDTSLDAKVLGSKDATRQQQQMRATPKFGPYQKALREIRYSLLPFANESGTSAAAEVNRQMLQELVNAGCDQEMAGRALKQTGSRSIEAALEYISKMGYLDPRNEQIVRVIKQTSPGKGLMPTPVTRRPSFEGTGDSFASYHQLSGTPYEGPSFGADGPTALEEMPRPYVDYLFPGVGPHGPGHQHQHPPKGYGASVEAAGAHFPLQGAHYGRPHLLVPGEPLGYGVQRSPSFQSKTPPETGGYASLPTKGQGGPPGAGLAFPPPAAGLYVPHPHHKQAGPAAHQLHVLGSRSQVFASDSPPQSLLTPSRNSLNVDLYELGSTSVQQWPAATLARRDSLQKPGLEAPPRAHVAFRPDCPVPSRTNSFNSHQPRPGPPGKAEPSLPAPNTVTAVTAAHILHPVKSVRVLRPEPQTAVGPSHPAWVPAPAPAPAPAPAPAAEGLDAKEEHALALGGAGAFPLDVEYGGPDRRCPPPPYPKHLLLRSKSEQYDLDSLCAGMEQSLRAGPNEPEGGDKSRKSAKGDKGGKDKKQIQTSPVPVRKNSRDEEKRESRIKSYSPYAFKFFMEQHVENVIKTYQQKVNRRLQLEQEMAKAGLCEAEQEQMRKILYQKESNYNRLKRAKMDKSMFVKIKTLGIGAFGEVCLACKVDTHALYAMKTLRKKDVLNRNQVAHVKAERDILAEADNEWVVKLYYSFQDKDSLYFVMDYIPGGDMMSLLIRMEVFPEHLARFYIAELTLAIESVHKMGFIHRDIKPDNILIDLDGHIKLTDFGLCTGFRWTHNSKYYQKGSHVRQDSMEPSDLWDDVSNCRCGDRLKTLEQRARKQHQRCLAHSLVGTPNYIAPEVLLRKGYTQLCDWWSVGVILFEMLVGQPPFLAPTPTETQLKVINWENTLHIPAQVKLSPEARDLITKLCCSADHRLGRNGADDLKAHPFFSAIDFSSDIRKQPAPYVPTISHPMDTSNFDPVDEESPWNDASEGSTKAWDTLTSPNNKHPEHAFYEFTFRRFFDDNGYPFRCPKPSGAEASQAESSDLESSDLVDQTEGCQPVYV
Particulars: read-out: %-inhibition at 1 µmol/L, LATS2.

Assay [10] deals with panel of 255 wild-type kinases (Homo sapiens, UniProt P53779). Particulars: read-out: %-inhibition at 1 µmol/L, JNK3.
Where [11] appears, read: MARK1, 1 µmol/L single concentration.
Where [12] appears, read: kinase PDGFRβ, 1 µmol/L single concentration.
[13] abbreviates: MER, 1 µmol/L single concentration.
The mark [14] stands for this setting: kinase CLK2, 1 µmol/L single concentration.
The mark [15] stands for this setting: kinase PKN1, 1 µmol/L single concentration.
The mark [16] stands for this setting: CaMK1δ kinase assay, 1 µmol/L single concentration.
[17] abbreviates: PAK2, 1 µmol/L single concentration.
Where [18] appears, read: kinase JAK1, 1 µmol/L single concentration.
Where [19] appears, read: kinase LATS2, 1 µmol/L single concentration.
Setting [20] is: kinase JNK3, 1 µmol/L single concentration.

Like-named read-outs stand apart in the source and are kept apart here.

`Cn1cc(-c2cc3c(N4CCN(c5ncc([C@@](C)(N)c6ccc(F)cc6)cn5)CC4)ncnn3c2)cn1` [avapritinib]: the inhibition at 1 µM in assay [1] (setting [11]) was -10%; in [2] (setting [12]) it was 95%; in assay [3] (setting [13]), 17%; in [4] (setting [14]), 11%; in assay [5] (setting [15]), 19%; in [6] (setting [16]), -4.32%. Besides, the inhibition at 1 µM was -4.42% in assay [7] (setting [17]), 29% in assay [8] (setting [18]), 1.47% in assay [9] (setting [19]) and 2.14% in assay [10] (setting [20]).
In the case of `C[C@H](Nc1ncnc2nc[nH]c12)c1cc2cccc(Cl)c2c(=O)n1-c1ccccc1` [duvelisib], the inhibition at 1 µM is 4.47% in [1] (setting [11]); 2% in [2] (setting [12]); -1% in [3] (setting [13]); 3.58% in assay [4] (setting [14]); 11% in [5] (setting [15]); 6% in assay [6] (setting [16]). For the same compound, the inhibition at 1 µM in assay [7] (setting [17]) was -1%; in assay [8] (setting [18]), 0.053%; in assay [9] (setting [19]), 8%; in assay [10] (setting [20]), -10%.
As for `COc1cc2ncnc(Nc3ccc(F)c(Cl)c3)c2cc1NC(=O)/C=C/CN1CCCCC1` [dacomitinib], the inhibition at 1 µM in assay [1] (setting [11]) is -2%; in assay [2] (setting [12]), 68%; in assay [3] (setting [13]) it was 19%; in assay [4] (setting [14]), -0.6%; in assay [5] (setting [15]) it was 16%; in assay [6] (setting [16]), 1.43%. The inhibition at 1 µM in assay [7] (setting [17]) was found to be 2.5%; in assay [8] (setting [18]), 0.444%; in assay [9] (setting [19]), 11%; in assay [10] (setting [20]) it was 0.338%.
As for `CCN1CCN(c2ccc(Nc3cc(N(C)C(=O)Nc4c(Cl)c(OC)cc(OC)c4Cl)ncn3)cc2)CC1` [infigratinib], the inhibition at 1 µM in assay [1] (setting [11]) was -9%; in assay [2] (setting [12]) it was 59%; in assay [3] (setting [13]) it was 15%; in [4] (setting [14]), 15%; in assay [5] (setting [15]), 13%; in [6] (setting [16]), 2.23%. In addition, the inhibition at 1 µM in [7] (setting [17]) is 1.66%; in assay [8] (setting [18]), 2.57%; in assay [9] (setting [19]) it was -3.67%; in assay [10] (setting [20]), 4%.
In the case of `Cn1cnc2c(F)c(Nc3ccc(Br)cc3Cl)c(C(=O)NOCCO)cc21` [selumetinib], the inhibition at 1 µM was -16% in assay [1] (setting [11]); 20% in assay [2] (setting [12]); 11% in [3] (setting [13]); 7% in [4] (setting [14]); 10% in assay [5] (setting [15]); -3.34% in [6] (setting [16]). In addition, the inhibition at 1 µM was -3.7% in assay [7] (setting [17]), 2.46% in assay [8] (setting [18]), -3.38% in assay [9] (setting [19]) and 2.14% in assay [10] (setting [20]).
Take `CNC(=O)c1ccc(-c2cnc3ncc(Cc4ccc5ncccc5c4)n3n2)cc1F` [capmatinib]: the inhibition at 1 µM in [1] was -5.32%; in assay [2], 20%; in assay [3], 13%; in [4], 7%; in assay [5] it was 16%; in assay [6], -10%. Moreover, the inhibition at 1 µM in [7] was -1.68%; in assay [8], 2.61%; in [9] it was -7%; in assay [10], 5%.
Consider `COC(=O)N[C@@H](C)CNc1nccc(-c2cn(C(C)C)nc2-c2cc(Cl)cc(NS(C)(=O)=O)c2F)n1` [encorafenib], for which the inhibition at 1 µM in assay [1] (setting [11]) was 2.71%; in assay [2] (setting [12]) it was 1.38%; in assay [3] (setting [13]), 0.281%; in [4] (setting [14]) it was 0.465%; in assay [5] (setting [15]), 6%; in assay [6] (setting [16]), -7%. Besides, the inhibition at 1 µM turned out to be 9.49% in [7] (setting [17]), 3.6% in [8] (setting [18]), 3.49% in assay [9] (setting [19]) and 59% in assay [10] (setting [20]).
As for `Cc1cc(Nc2ncnc3ccc(NC4=NC(C)(C)CO4)cc23)ccc1Oc1ccn2ncnc2c1` [tucatinib], the inhibition at 1 µM in assay [1] (setting [11]) was -7%; in assay [2] (setting [12]), 31%; in assay [3] (setting [13]) it was 12%; in assay [4] (setting [14]), 5%; in assay [5] (setting [15]) it was 18%; in [6] (setting [16]), -3.73%. The inhibition at 1 µM was -1.88% in [7] (setting [17]), 2.72% in [8] (setting [18]), 0.168% in [9] (setting [19]) and 1.13% in assay [10] (setting [20]).
Turning to `CN1CCN(c2ccc(C(=O)Nc3n[nH]c4ccc(Cc5cc(F)cc(F)c5)cc34)c(NC3CCOCC3)c2)CC1` [entrectinib], the inhibition at 1 µM in assay [1] (setting [11]) is 19%; in assay [3] (setting [13]), 61%; in assay [4] (setting [14]), 28%; in [5] (setting [15]), 64%; in assay [6] (setting [16]), 16%; in assay [7] (setting [17]), -10%. For the same compound, the inhibition at 1 µM in [8] (setting [18]) was 91%; in assay [9] (setting [19]), 18%; in assay [10] (setting [20]), -1.69%.
